Experimental data: patent US20250108141A1, “TOPICAL FORMULATIONS FOR TARGETED DELIVERY OF THERAPEUTICS” (UNM RAINFOREST INNOVATIONS, priority 2023, published 2025)
Entries after “also recorded” stand apart in the source; their conditions may differ.

Experiments:
MmuPV1 [1] = assay: MmuPV1-induced tail tumor (wart) model, oral gavage; assay type: in vivo; details: oral gavage every 48 hours for four weeks, cobimetinib 7.5 or 15 mg/kg, trametinib 1.0 or 2.0 mg/kg, athymic nude mice
Protocol: FIG. 3. […] Female Hsd:Athymic Nude-Foxn1^nu mice were infected with 2×10^8 viral genome equivalents (VGE) of MmuPV1 virions. Tumors (warts) were allowed to grow for 6 weeks before randomizing into vehicle or treatment groups (n=6 per group) with each group having an average tumor volume (length×width×height) of approximately 40 mm^3. Mice were dosed by oral gavage treatment every 48 hours for four weeks before harvesting each tumor for histology. (A) Quantification of tail tumor volumes over 32 days of treatment in mice infected with MmuPV1 and treated with vehicle, 7.5 mg/kg cobimetinib, or 15 mg/kg cobimetinib. (B) Quantification of tail tumor volume over 32 days of treatment in mice infected with MmuPV1 and treated with vehicle (same as in FIG. 3A), 1.0 mg/kg trametinib, or 2.0 mg/kg trametinib. Statistical analyses by two-way Anova, Dunnett's T3 test ([…], ** p<0.01). (C) Representative images of tail tumors of a mouse treated with vehicle only. (D) Representative images of tail tumors of a mouse treated with 7.5 mg/kg cobimetinib or 15 mg/kg cobimetinib. (E) Representative images of tail tumors of a mouse treated with 1.0 mg/kg trametinib or 2.0 mg/kg trametinib.

[2] = system: HPV16-infected SG3 human keratinocytes; assay: Topical treatment of HPV16-infected 3D organotypic epithelial raft tissues; assay type: cell-based; details: TABLE 2 formulations, single topical treatment, 96 hours
[3] = system: HPV16-infected cells established from cervix (W12-E); assay: HPV16-infected W12-E 3D organotypic raft tissue, trametinib added systemically; assay type: cell-based; details: 10 nM trametinib added systemically every 48 hours on days 8, 10, 12
Protocol: FIG. 2. Histology data showing that HPV16 oncogene transcription and activity is modulated by MEK1/2 activation in 3D organotypic epithelial tissue cultures. HPV16-infected cells established from cervix (W12-E) were cultured as raft tissues for 14 days. Panels A-D are taken from tissues cultured under normal conditions. Panels E-H are images of tissue cultured with 10 ng/mL EGF added systemically (in the cell culture medium below the basal layer and collagen matrix) every 48 hours on days 8, 10, and 12 post raft tissue lifting to the air-liquid interface. Panels I-L are images of tissues cultured with 10 nM trametinib added systemically every 48-hours on days 8, 10, and 12 post raft tissue lifting to the air-liquid interface. Tissues were examined for morphology (Top, H&E staining), phosphorylated ERK1/2 (p-ERK1/2) immunohistochemistry (brown), HPV E6&E7 mRNA in situ hybridization (red), and E7 activity via proxy p16INK4A immunohistochemistry. Broken lines underscore the basal cell layer above the collagen matrix; bars=100 μm.

MmuPV1 [4] = assay: Topical gel treatment of MmuPV1-induced tumors in vivo; design: species or system mice; details: daily topical gel (2.5% HPC, 15%-18% TRANSCUTOL) with trametinib 150 μM-600 μM; starting tumors 145.3 mm^3 to 279.4 mm^3
Protocol: Mice bearing MmuPV1-induced tumors ranging in volume from 145.3 mm^3 to 279.4 mm^3 were treated daily with a topical gel (2.5% HPC, 15%-18% TRANSCUTOL (Gattefosse SAS, Saint-Priest, France)) containing the MEK inhibitor trametinib (150 μM-600 μM).

[5] = system: HPV16-infected SG3 human keratinocytes; assay: Topical treatment of HPV16-infected 3D organotypic epithelial raft tissues; assay type: cell-based
Protocol: FIG. 6. […] HPV16-infected (SG3) cells were cultured as raft tissues for 12 days. Duplicate raft tissues were left untreated, or topically treated with 0.5 ml of either vehicle gel (20% Tc, 2.5% HPC in PBS) alone or 30 μM trametinib in vehicle gel for 48 hours. One raft from each duplicate set was collected for total protein extraction for SDS-PAGE and immunoblots (A), the second raft was harvested for tissue fixation, paraffin embedding, and cross-sectioning of tissues for histology (B-J). […] Panels B-D show histology by H&E staining in untreated, vehicle-treated, and 30 μM trametinib-treated rafts. […] Broken lines underscore the basal cell layer.
FIG. 18. Experiment akin to that in FIG. 6, except that it uses 2.5% HPC and 10% Tc for the vehicle. Drug treatment includes 15 μM trametinib. Experimental groups were treated with the topical formulations for 24 hours or 48 hours before harvesting for immunoblots and tissue sectioning.
The experimental protocol used in this example is illustrated in FIG. 5. A semi-solid collagen-fibroblast matrix was created to act as a dermal equivalent (stage 1). HPV16-infected SG3 human keratinocytes (cells) that maintained circular HPV16 genomes extrachromosomally were seeded on the top of the dermal equivalent submerged in growth medium (stage 2). After the HPV-infected keratinocytes grew to confluency (2-3 days), growth medium was removed, and the dermal equivalent was lifted to the air-liquid interface above fresh growth medium (stage 3). Fresh medium was replaced every two days. This allowed the keratinocytes to stratify and differentiate into a multilayered epithelium akin to human skin/mucosa within 10-12 days (Stage 4).
The MEK1/2 inhibitor trametinib was dissolved in diethylene glycol monoethyl ether (TRANSCUTOL; Gattefosse SAS, Saint-Priest, France). The trametinib-2-(2-ethoxyethoxy)ethanol solution was combined with hydroxypropyl cellulose (KLUCEL MXF Pharma, 850 kDa), a pharmaceutical grade thermal gelation agent. Formulations of 30 μM trametinib, 20% 2-(2-ethoxyethoxy)ethanol, and 2.5% hydroxypropyl cellulose applied one time to stratified and differentiated HPV16-infected three-dimensional organotypic epithelial “raft” tissues cultured at the air-liquid interface for 12 days. Each treatment was carried out in duplicate. Tissues were harvested daily two to five days post treatment for total protein extraction and histological analyses (FIG. 6). Specifically, each raft tissue was divided in half with a scalpel. One half was subject to total protein extraction, SDS-PAGE and immunoblot; the second half was fixed in 10% neutral buffered formalin, embedded in paraffin, and sectioned ([…]) on to microscope slides. The tissue sections were subject to histology, immunohistochemistry, or in situ hybridization.
Formulations according to TABLE 2 were prepared. Epithelial raft tissues were prepared as described in Example 1. Each formulation was topically applied to duplicate HPV-infected raft epithelial tissues.
Each formulation was left on the tissue raft undisturbed for 48 hours. 48 hours after treatment, tissues were harvested for protein extraction and histological analysis as described above.
In Example 3, epithelial raft tissues were topically treated in duplicate with formulations including trametinib and 2-(2-ethoxyethoxy)ethanol and analyzed for p-ERK1/2 and E7 protein expression after three days (72 hours). Epithelial raft tissues were prepared as described in Example 1. Formulations were prepared according to TABLE 2. Each epithelial raft tissue was topically treated with one formulation. 72 hours after treatment, epithelial raft tissues were collected for protein extraction.

HPV16-infected SG3 cells = assay: MK-8353 treatment of HPV16-infected SG3 cells, immunoblot; assay type: cell-based; details: MK-8353 dissolved in Tc, 48 h
Protocol: The p-ERK1/2 inhibitor MK-8353 (Selleck Chemicals LLC, Houston, TX) was dissolved in 2-(2-ethoxyethoxy)ethanol (Tc) at 5 mM. HPV16-infected SG3 cells were plated in complete medium and then treatments were initiated without active agent or with increasing concentrations of MK-8353 in serum-free medium. At 24 h post treatment, fresh treatments were added and maintained for an additional 24 h. Cells treated for 48 h were lysed with detergent-containing buffer and 50 μg of each sample was analyzed by SDS-PAGE and immunoblot for the proteins of interest including p-ERK1/2, p-Fra1, HPV16 E7, and actin.

[6] = 15 μM trametinib in 2.5% HPC and 10% Tc vehicle, 24 hours or 48 hours
[7] = TABLE 2 formulations, 30 μM trametinib, single topical treatment, 48 hours
[8] = increasing concentrations in serum-free medium

O=C(c1ccc(F)c(F)c1Nc1ccc(I)cc1F)N1CC(O)([C@@H]2CCCCN2)C1 [cobimetinib, (S)-[3,4-Difluoro-2-(2-fluoro-4-iodophenylamino)phenyl][3-hydroxy-3-(piperidin-2-yl)azetidine-1-yl]methanone]
tail tumor (wart) volume (MmuPV1 [1]): suppresses MmuPV1-induced benign tumor (e.g., wart) growth
tail tumor (wart) volume (MmuPV1 [1]; listed as Cobimetinib): suppresses wart growth but did not lead to regression

CC(=O)Nc1cccc(-n2c(=O)n(C3CC3)c(=O)c3c(Nc4ccc(I)cc4F)n(C)c(=O)c(C)c32)c1 [trametinib, N-(3-{3-Cyclopropyl-5-[(2-fluoro-4-iodophenyl)amino]-6,8-dimethyl-2,4,7-trioxo-3,4,6,7-tetrahydropyrido[4,3-d]pyrimidin-1 (2H)-yl}phenyl)acetamide]
E7 by immunoblot [2]: decrease
p-ERK1/2 by immunoblot [2]: decrease
E7 activity (E7 surrogate p16INK4A protein) [3]: suppresses
MEK activation (p-ERK1/2 immunohistochemistry) [3]: suppresses
production of E6/E7 mRNA (in situ hybridization) [3]: suppresses
hyperproliferation ([3]; raft tissues cultured 14 days): suppresses
tail tumor (wart) volume (MmuPV1 [1]): leads to tumor regression; also recorded: regression of warts to a smaller size than those originally treated
MmuPV1 tumor volume (MmuPV1 [4]): promotes MmuPV1 tumor regression
E6/E7 mRNA detection [5, 6]: reduced
p-ERK1/2 protein detection [5, 6]: reduced
p-ERK1/2 by immunoblot ([5]; 30 μM trametinib, 20% 2-(2-ethoxyethoxy)ethanol, 2.5% HPC gel, applied one time, two days (48 hours) post treatment): complete suppression; also recorded: reduction in p-ERK1/2 to almost undetectable levels
p-ERK1/2 suppression, later harvests ([5]; 30 μM trametinib, 20% Tc, 2.5% HPC gel, applied one time, three to five days post treatment): sustained
p-ERK1/2 by immunohistochemistry ([5]; 30 μM trametinib, 20% Tc, 2.5% HPC gel, 48 hours): abrogates
HPV16 E6/E7 mRNA by in situ hybridization ([5]; 30 μM trametinib, 20% Tc, 2.5% HPC gel, two days post treatment): complete suppression; also recorded: reduces E6/E7 mRNA to undetectable levels
HPV16 E7 protein by immunoblot [5, 7]: suppresses
p-ERK1/2 by immunoblot [5, 7]: suppresses
hyperplasia ([5]; one-time topical treatment, 30 μM trametinib, 20% Tc, 2.5% HPC): suppressed

CS[C@@]1(C(=O)Nc2ccc3[nH]nc(-c4ccc(OC(C)C)nc4)c3c2)CCN(CC(=O)N2CC=C(c3ccc(-c4ncn(C)n4)cc3)CC2)C1 [MK-8353]
phosphorylation of ERK1/2 (p-ERK1/2) (HPV16-infected SG3 cells): does not necessarily prevent
levels of the HPV16 E7 oncoprotein (HPV16-infected SG3 cells; [8]): reduce the levels
p-ERK1/2 activity as measured by p-Fra1 phosphorylation (HPV16-infected SG3 cells; [8]): Suppresses
